From patent publication EP0974594A1, “Artemisinin derivatives as anti-infective agent” (The Hong Kong University of Science & Technology, priority 1998, dated 2000)
In brackets after ≈: the same amount, converted by molar mass. Where two headings read alike, the source gives them in different places.

What was measured:
Format in all cases: cell-based
[1] = system: Neospora caninum tachyzoites; test: Screening of compounds against Neospora caninum cell cultures in vitro (microscopic evaluation of infected host cell monolayer); parameters: key: 0 = no effect; 1 = weak effect; 2 = full effect; T = cytotoxic; settings: VERO or ED host cells, evaluation 4 days after treatment
Procedure: (a) Screening of compounds against Neospora Caninum cell cultures in vitro.
Screening was conducted in 96-well plates (Falcon 3872). A monolayer of host cells (VERO or ED) were placed on a cell culture plate. Non-infected monolayers of cells were cultured in two 50 ml tissue culture bottles (50 cm^3 cell culture area). The cell layer was detached with trypsin-EDTA (5 ml. Gibco 45300-019) in a CO2-culture cupboard at 37°C. After 10 minutes, most of the cells were detached. The cells were transferred with a 5 ml pipette into a 50 ml centrifuge tube (Greiner, B769331) containing about 1 ml warmed fetal calf serum. After centrifugation for 5 minutes at 1500 rpm (Varifuge 3.0, Heraeus), the liquid was removed and the cell pellet suspended in RPMI medium (100 ml, 95% RPMI 1640, 2% FCS, 1% L-glutamine, 1% sodium hydrogen carbonate, 1% penicillin/streptomycin). The cell suspension was pipetted into six 96-well plates at 150 µl per well. The coated cell culture plates were placed in an incubation cupboard at 37°C under 5% CO2 for 24 hours. The cells were then infected with Neospora caninum tachyzoites at a concentration of 48,000 tachyzoites per well. This was followed by incubation at 37°C under 5% CO2 for 24 hours.
The test compounds (0.5 - 1.5 mg) were weighed into 1.5 ml eppendorf vessels and dissolved in 1 ml dimethyl sulphoxide, corresponding to a dilution of about 1 x 10^-3 g ml^-1. The medium used for further dilution consisted of 87% RPMI 1640, 10% FCS, 1% L-glutamine, 1% sodium hydrogen carbonate, 1% penicillin/streptomycin. In the first screening, concentrations of 10^-5, 10^-6 and 10^-7 g ml^-1 were used. The diluted preparations were then transferred to the cell culture plates at a volume of 150 µl per well after 24 hour infection with Neospora caninum. For the first row, untreated medium was used; this row contained infected and uninfected cells as controls. The cell plate was incubated at 37°C under 5% CO2 for 5 days. Microscopic evaluation was conducted 4 days after treatment and 5 days after infection at a magnification of 25 x 10 in an inverse microscope according to the following evaluation scheme.

[2] = system: Eimeria tenella; test: Screening of compounds against Eimeria tenella cell cultures in vitro (chick kidney cell monolayers, microscopic evaluation); settings: chick kidney cells, day 5 post infection
Procedure: (b) Screening of Compounds again Eimeria Tenella cell cultures in vitro
Cells from kidneys of 19 day old chicks are cultured as monolayers in 96-well plates (Falcon 3872) in a medium of Hanks lactalbumine hydrolysate, 5% fetal calf serum, 1% glutamine and 1% non-essential amino acids. After two days at 42°C under 5% CO2, the culture was infected with excised sporozoites of Eimeria tenella at about […] per well. Test compounds were dissolved in DMSO and diluted with culture medium to a maximum end concentration of 10µg ml^-1. The dilution steps were 1:10. On day 5 post infection, the cultures were evaluated under a microscope at 100-fold magnification and the condition of the host cells and the amount of intact schizonts and free merozoites was determined.

[3] = system: Plasmodium Falciparum W2 Strain (Chloroquine resistant); test: In vitro screening against Plasmodium falciparum, radiolabelled hypoxanthine incorporation, W2 strain; settings: for IC50 / IC90: Plasmodium falciparum; for IC50: read-out: In vitro activity: IC50; for IC90: read-out: In vitro activity: IC90
Procedure: (§1) (c) In Vitro Screening against Plasmodium Falciparum
Two parasite strains - W2 resistant to chloroquine, and D6 sensitive to chloroquine but resistant to mefloquine were used.
The assay relies on incorporation of radiolabelled hypoxanthine by the parasite and inhibition of incorporation is attributed to activity of known or candidate antimalarial drugs. For each assay, proven antimalarials such as chloroquine, mefloquine, quinine, artemisinin and pyrimethamine were used as controls. The incubation period was 66 hours, and the starting parasitemia was 0.2% with 1% hematocrit. The medium was an RPMI-1640 culture with no folate or p-aminobenzoic acid. […] If a compound was submitted with no prior knowledge of activity, it was dissolved directly in dimethyl sulphoxide (DMSO), and diluted 400 fold with complete culture medium. […] These dilutions were performed automatically by a Biomek 1000 Liquid Handling System in 96-well microtiter plates. The diluted drugs were then transferred to test plates, 200 µl of parasitized erythrocytes were added, and incubated at 37°C in a controlled environment of 5% CO2, 5% O2 and 90% N2. After 42 hours, 25 µl of ^3H-hypoxanthine was added, and the plates incubated for an additional 24 hours. After 66 hours, the plates were frozen at -70°C to lyse the red cells, and then thawed and harvested onto glass fiber filter mats in a 96-well harvester. The filter mats were then counted in a scintillation counter. For each drug, the concentration response profile was determined and 50%, 90% and 10% inhibitory concentrations (IC50, IC90 and IC10) were determined by a non-linear logistic dose response analysis program.
(§2) A prescreen format can be used wherein a 3-dilution assay may be used to determine activity at high medium or low concentrations. The concentrations were selected as 50,000, 500 and 50 ng ml^-1. These were performed in duplicate on a 96-well format plate with 14 test compounds and one known (standard) compound per plate. The system was automated with a Biomek diluter for mixing and diluting the drugs, and adding drugs and parasites to a test plate.
In the prescreen format, if the […] […] If the AF has a ">", then the IC value is greater than the prescreen dilution value; thus "AF>250" means that the IC value is greater than 250 ng ml^-1 and no further screening is carried out. In such cases, values of 0.00 are entered for IC values.

[4] = system: Plasmodium Falciparum D6 Strain (Chloroquine sensitive); test: In vitro screening against Plasmodium falciparum, radiolabelled hypoxanthine incorporation, D6 strain; settings: for IC50 / IC90: Plasmodium falciparum; for IC50: read-out: In vitro activity: IC50; for IC90: read-out: In vitro activity: IC90
From the text: as §1
Two parasite strains - W2 resistant to chloroquine, and D6 sensitive to chloroquine but resistant to mefloquine were used. In Table IV below, the best compounds should show no cross resistance between the two strains.
The assay relies on incorporation of radiolabelled hypoxanthine by the parasite and inhibition of incorporation is attributed to activity of known or candidate antimalarial drugs. For each assay, proven antimalarials such as chloroquine, mefloquine, quinine, artemisinin and pyrimethamine were used as controls. The incubation period was 66 hours, and the starting parasitemia was 0.2% with 1% hematocrit. The medium was an RPMI-1640 culture with no folate or p-aminobenzoic acid. Albumax rather than 10% normal heat inactivated human plasma was used as, with Albumax, less protein binding is observed, and compounds elicit slightly higher activities in this model. If a compound was submitted with no prior knowledge of activity, it was dissolved directly in dimethyl sulphoxide (DMSO), and diluted 400 fold with complete culture medium. The unknown compound was started at a maximum concentration of 50,000 ng ml^-1 and sequentially diluted 2-fold for 11 times to give a concentration range of 1048 fold. These dilutions were performed automatically by a Biomek 1000 Liquid Handling System in 96-well microtiter plates. The diluted drugs were then transferred to test plates, 200 µl of parasitized erythrocytes were added, and incubated at 37°C in a controlled environment of 5% CO2, 5% O2 and 90% N2. After 42 hours, 25 µl of ^3H-hypoxanthine was added, and the plates incubated for an additional 24 hours. After 66 hours, the plates were frozen at -70°C to lyse the red cells, and then thawed and harvested onto glass fiber filter mats in a 96-well harvester. The filter mats were then counted in a scintillation counter. For each drug, the concentration response profile was determined and 50%, 90% and 10% inhibitory concentrations (IC50, IC90 and IC10) were determined by a non-linear logistic dose response analysis program.
as §2
In the prescreen format, if the ANALYSIS FIELD (AF) has a "<", then the compound was "very active" and the IC values are most likely to be below the last dilution value (in nanograms/ml), which is listed next to AF. In most cases, these compounds were run again at lower starting concentration to determine the true IC value. If the AF has a ">", then the IC value is greater than the prescreen dilution value; thus "AF>250" means that the IC value is greater than 250 ng ml^-1 and no further screening is carried out. In such cases, values of 0.00 are entered for IC values.

[5] = D6 Strain (Chloroquine sensitive), 66 hours incubation

IC50 ([3]; W2, 66 h) [ng/mL]	IC90 ([3]; W2, 66 h) [ng/mL]	IC50 [4, 5] [ng/mL]	IC90 [4, 5] [ng/mL]	SMILES	Evaluation (observable effect) ([1]; Dose 10^-5 g/ml)	Evaluation (effectiveness) ([2]; Dose 10^-5 g/ml)	Evaluation (effectiveness) ([2]; Dose 10^-6 g/ml)	Evaluation (effectiveness) ([2]; Dose 10^-7 g/ml)	Evaluation (observable effect) ([1]; Dose 10^-6 g/ml)	Evaluation (observable effect) ([1]; Dose 10^-7 g/ml)	In vitro activity: (IC10) ([3]; W2 Strain (Chloroquine resistant), 66 hours incubation) [ng/mL]	Evaluation (effectiveness) ([2]; Dose 10^-8 g/ml)	In vitro activity: (IC10) [4, 5] [ng/mL]	IC50 ([4]; D6, 66 h) [ng/mL]	IC90 ([4]; D6, 66 h) [ng/mL]	In vitro activity: (IC10) ([3]; W2, 66 h) [ng/mL]
				C[C@@H]1CC[C@H]2[C@@H](C)C(=O)O[C@@H]3O[C@@]4(C)CC[C@@H]1[C@]32OO4 [Artemisinin, artemisinin]	0	2 (2 = active)	1 (1 = weakly active)	0 (0 = inactive)								
0.07 (≈ 0.18 nM)	0.21 (≈ 0.541 nM)	0.03 (≈ 0.0772 nM)	0.03 (≈ 0.0772 nM)	C[C@H]1[C@@H](OC(=O)c2ccccc2)O[C@@H]2O[C@@]3(C)CC[C@H]4[C@H](C)CC[C@@H]1[C@@]24OO3 [Example 2, 10β-dihydroartemisinyl benzoate]	2	2 (2 = active)	2 (2 = active)	0 (0 = inactive)	1	0			0.02			0.03
0.48 (≈ 0.926 nM)	1.1 (≈ 2.12 nM)	0.44 (≈ 0.849 nM)	0.71 (≈ 1.37 nM)	C[C@H]1[C@@H](OC(=O)c2ccc3c(c2)C(=O)c2ccccc2C3=O)O[C@@H]2O[C@@]3(C)CC[C@H]4[C@H](C)CC[C@@H]1[C@@]24OO3 [Example 7]									0.27			0.21
				C[C@H]1[C@H](OC(=O)CCC(=O)[O-])O[C@@H]2O[C@@]3(C)CC[C@H]4[C@H](C)CC[C@@H]1[C@@]24OO3.[Na+] [Sodium Artesunate, sodium artesunate]	2		2 (2 = active)	2 (2 = active)	0			0 (0 = inactive)				

SMILES	IC50 ([3]; W2, 66 h) [ng/mL]	IC90 ([3]; W2, 66 h) [ng/mL]	IC50 [4, 5] [ng/mL]	IC90 [4, 5] [ng/mL]	Evaluation (observable effect) ([1]; Dose 10^-5 g/ml)	Evaluation (effectiveness) ([2]; Dose 10^-5 g/ml)	Evaluation (effectiveness) ([2]; Dose 10^-6 g/ml)	Evaluation (effectiveness) ([2]; Dose 10^-7 g/ml)	Evaluation (observable effect) ([1]; Dose 10^-6 g/ml)	Evaluation (observable effect) ([1]; Dose 10^-7 g/ml)	In vitro activity: (IC10) ([3]; W2 Strain (Chloroquine resistant), 66 hours incubation) [ng/mL]	Evaluation (effectiveness) ([2]; Dose 10^-8 g/ml)	In vitro activity: (IC10) [4, 5] [ng/mL]	IC50 ([4]; D6, 66 h) [ng/mL]	IC90 ([4]; D6, 66 h) [ng/mL]	In vitro activity: (IC10) ([3]; W2, 66 h) [ng/mL]
CC(=O)O[C@@H]1O[C@@H]2O[C@@]3(C)CC[C@H]4[C@H](C)CC[C@@H]([C@H]1C)[C@@]24OO3 [Example 1, 10-dihydroartemisinyl ethanoate]	119 (≈ 365 nM)	163 (≈ 500 nM)			2			1 (1 = weakly active)	1	0	86.88	0 (0 = inactive)	127.91	172 (≈ 526 nM)	231 (≈ 706 nM)	
